{
  "source": "PubChem BioAssay AID212",
  "about": "(DTP/NCI, 2004)",
  "system": "BDF1 mice, colon carcinoma 38 sc, T/C %",
  "assay": "NCI In Vivo Anticancer Drug Screen. Data for tumor model Colon Carcinoma 38 (subcutaneous) in B6D2F1 (BDF1) mice",
  "conditions": "endpoint: median tumor weight (est.), higher = larger tumour",
  "protocol": "The antitumor activity of compounds was measured in mice bearing transplantable tumors. Survival or tumor size were measured and the results are expressed as the measurement made in the treated group (T) divided by the measurement made in the vehicle treated control group (C). The tumor model used in this assay is Colon Carcinoma 38 (subcutaneous) in B6D2F1 (BDF1) mice",
  "key": {"[1]": {"conditions": "dose: 25.0 mg/kg/injection, schedule: Q07DX002 (ip), vehicle: saline with Tween-80"}, "[2]": {"conditions": "dose: 50.0 mg/kg/injection, schedule: Q07DX002 (ip), vehicle: saline with Tween-80"}, "[3]": {"conditions": "dose: 100.0 mg/kg/injection, schedule: Q07DX002 (ip), vehicle: saline with Tween-80"}, "[4]": {"conditions": "dose: 200.0 mg/kg/injection, schedule: Q07DX002 (ip), vehicle: saline with Tween-80"}, "[5]": {"conditions": "dose: 400.0 mg/kg/injection, schedule: Q07DX002 (ip), vehicle: saline with Tween-80"}},
  "note": "“And” between values parts separate entries of the source, which are not always exact repeats. Identical values can stand only once. Results filed as inconclusive are left out.",
  "data": [
    {"compound": "Cc1ccc[c]([Hg][Cl])c1N=Nc1ccccc1", "values": [
      {"measurement": "T/C", "setting": "dose: 6.25 mg/kg/injection, schedule: Q07DX002 (ip), vehicle: saline with Tween-80", "result": "69 % of control"}
    ]},
    {"compound": "CC(=O)CC(c1ccccc1)c1c(O)c2ccccc2oc1=O", "note": "(configuration not stated)", "values": [
      {"measurement": "T/C", "setting": "dose: 0.01 mg/kg/injection, schedule: Q07DX002 (ip), vehicle: Klucel (hydroxypropylcellulose) (HPC)", "result": "96 % of control"},
      {"measurement": "T/C", "setting": "dose: 0.02 mg/kg/injection, schedule: Q07DX002 (ip), vehicle: Klucel (hydroxypropylcellulose) (HPC)", "result": "119 % of control"},
      {"measurement": "T/C", "setting": "dose: 0.05 mg/kg/injection, schedule: Q07DX002 (ip), vehicle: Klucel (hydroxypropylcellulose) (HPC)", "result": "100 % of control"},
      {"measurement": "T/C", "setting": "dose: 0.1 mg/kg/injection, schedule: Q07DX002 (ip), vehicle: Klucel (hydroxypropylcellulose) (HPC)", "result": "95 % of control"},
      {"measurement": "T/C", "setting": "dose: 0.2 mg/kg/injection, schedule: Q07DX002 (ip), vehicle: Klucel (hydroxypropylcellulose) (HPC)", "result": "86 % of control"},
      {"measurement": "T/C", "setting": "dose: 0.22 mg/kg/injection, schedule: Q07DX002 (ip), vehicle: saline", "result": "115 % of control"},
      {"measurement": "T/C", "setting": "dose: 0.45 mg/kg/injection, schedule: Q07DX002 (ip), vehicle: saline with Tween-80", "result": "91 % of control"},
      {"measurement": "T/C", "setting": "dose: 0.45 mg/kg/injection, schedule: Q07DX002 (ip), vehicle: saline", "result": "96 % of control"},
      {"measurement": "T/C", "setting": "dose: 0.9 mg/kg/injection, schedule: Q07DX002 (ip), vehicle: saline with Tween-80", "result": "110 % of control"},
      {"measurement": "T/C", "setting": "dose: 0.9 mg/kg/injection, schedule: Q07DX002 (ip), vehicle: saline", "result": "88 % of control"},
      {"measurement": "T/C", "setting": "dose: 1.8 mg/kg/injection, schedule: Q07DX002 (ip), vehicle: saline", "result": "72 % of control"},
      {"measurement": "T/C", "setting": "dose: 3.6 mg/kg/injection, schedule: Q07DX002 (ip), vehicle: saline", "result": "67 % of control"}
    ]},
    {"compound": "COc1cc(NS(C)(=O)=O)ccc1Nc1c2ccccc2nc2ccccc12", "values": [
      {"measurement": "T/C", "setting": "dose: 0.5 mg/kg/injection, schedule: Q07DX003 (ip), vehicle: other", "result": "68 % of control"},
      {"measurement": "T/C", "setting": "dose: 1.0 mg/kg/injection, schedule: Q07DX002 (ip), vehicle: other", "result": "93 % of control"},
      {"measurement": "T/C", "setting": "dose: 1.0 mg/kg/injection, schedule: Q07DX003 (ip), vehicle: other", "result": "88 % of control"},
      {"measurement": "T/C", "setting": "dose: 2.0 mg/kg/injection, schedule: Q07DX003 (ip), vehicle: other", "result": "42 % of control"},
      {"measurement": "T/C", "setting": "dose: 4.0 mg/kg/injection, schedule: Q07DX002 (ip), vehicle: other", "result": "78 % of control and 91 % of control"},
      {"measurement": "T/C", "setting": "dose: 4.0 mg/kg/injection, schedule: Q07DX003 (ip), vehicle: other", "result": "56 % of control"},
      {"measurement": "T/C", "setting": "dose: 8.0 mg/kg/injection, schedule: Q07DX003 (ip), vehicle: other", "result": "47 % of control"}
    ]},
    {"compound": "OC1(CSc2ccccc2)CCCCC1", "values": [
      {"measurement": "T/C", "setting": "[1]", "result": "93 % of control"},
      {"measurement": "T/C", "setting": "[2]", "result": "47 % of control"},
      {"measurement": "T/C", "setting": "[3]", "result": "97 % of control"},
      {"measurement": "T/C", "setting": "[4]", "result": "87 % of control"},
      {"measurement": "T/C", "setting": "[5]", "result": "77 % of control"}
    ]},
    {"compound": "O=C(Nc1ccccc1)c1c(O)[nH]c(=S)[nH]c1=O", "values": [
      {"measurement": "T/C", "setting": "dose: 112.0 mg/kg/injection, schedule: Q07DX002 (ip), vehicle: saline with Tween-80", "result": "68 % of control"},
      {"measurement": "T/C", "setting": "dose: 225.0 mg/kg/injection, schedule: Q07DX002 (ip), vehicle: saline with Tween-80", "result": "51 % of control"}
    ]},
    {"compound": "O=CN(SSN(C=O)C1CCCCC1)C1CCCCC1", "values": [
      {"measurement": "T/C", "setting": "[1]", "result": "98 % of control and 99 % of control"},
      {"measurement": "T/C", "setting": "[2]", "result": "77 % of control and 78 % of control"},
      {"measurement": "T/C", "setting": "[4]", "result": "113 % of control and 98 % of control"}
    ]},
    {"compound": "CC(=O)Nc1ccc(O)c(O)c1", "values": [
      {"measurement": "T/C", "setting": "dose: 12.5 mg/kg/injection, schedule: Q07DX002 (ip), vehicle: saline with Tween-80", "result": "112 % of control"},
      {"measurement": "T/C", "setting": "[1]", "result": "86 % of control"},
      {"measurement": "T/C", "setting": "[2]", "result": "100 % of control and 102 % of control"},
      {"measurement": "T/C", "setting": "[3]", "result": "66 % of control and 83 % of control"},
      {"measurement": "T/C", "setting": "[4]", "result": "90 % of control and 95 % of control"},
      {"measurement": "T/C", "setting": "[5]", "result": "74 % of control and 75 % of control and 86 % of control"},
      {"measurement": "T/C", "setting": "dose: 800.0 mg/kg/injection, schedule: Q07DX002 (ip), vehicle: saline with Tween-80", "result": "72 % of control"}
    ]},
    {"compound": "N#CC(OC1OC(COC2OC(CO)C(O)C(O)C2O)C(O)C(O)C1O)c1ccccc1", "note": "(configuration not stated)", "values": [
      {"measurement": "T/C", "setting": "dose: 50.0 mg/kg/injection, schedule: Q07DX002 (ip), vehicle: water", "result": "98 % of control"},
      {"measurement": "T/C", "setting": "dose: 100.0 mg/kg/injection, schedule: Q07DX002 (ip), vehicle: water", "result": "87 % of control"},
      {"measurement": "T/C", "setting": "dose: 200.0 mg/kg/injection, schedule: Q07DX002 (ip), vehicle: water", "result": "112 % of control"},
      {"measurement": "T/C", "setting": "dose: 400.0 mg/kg/injection, schedule: Q07DX002 (ip), vehicle: water", "result": "102 % of control"},
      {"measurement": "T/C", "setting": "dose: 1600.0 mg/kg/injection, schedule: Q07DX002 (ip), vehicle: water", "result": "91 % of control"}
    ]}
  ]
}
